{
  "source": "PubChem BioAssay AID2060887",
  "about": "(Molecular Pharmacology Branch, DTP, NCI, 2025);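 also: spheroids exposed to compounds for 7 days before reading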;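 as to viability, T/C: 100% = DMSO vehicle control viability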",
  "system": "782815-120-R-J1-PDC complex spheroid viability",
  "assay": "Anticancer human tumor 782815-120-R-J1-PDC patient-derived colon adenocarcinoma cell line growth inhibition [RAS]",
  "conditions": "for IC50: curve of first compound; for viability, T/C: stronger effect = lower value",
  "method_in_brief": "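Multi-cell-type spheroids: tumor cells plus HUVEC endothelial cells and mesenchymal stem cells. RAS-pathway inhibitors were combined with targeted agents, each dosed in half-log steps down from clinical Cmax, or from 10 microM when Cmax was unknown.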",
  "data": [
    {"smiles": "CCN1CCN(Cc2ccc(Nc3ncc(F)c(-c4cc(F)c5nc(C)n(C(C)C)c5c4)n3)nc2)CC1", "note": "+ CCn1c(-c2cc(N3CCN(C)CC3)cnc2C(C)OC)c2c3cc(ccc31)-c1csc(n1)CC(NC(=O)C1CC1C)C(=O)N1CCCC(N1)C(=O)OCC(C)(C)C2", "values": [
      {"measurement": "IC50", "setting": "second compound 0.000949 µM", "result": "> 1", "unit": "µM"},
      {"measurement": "IC50", "setting": "second compound 0.003 µM", "result": "> 1", "unit": "µM"},
      {"measurement": "IC50", "setting": "second compound 0.00949 µM", "result": "< 0.00316", "unit": "µM"},
      {"measurement": "IC50", "setting": "second compound 0.03 µM", "result": "< 0.00316", "unit": "µM"},
      {"measurement": "IC50", "setting": "second compound 0.0949 µM", "result": "< 0.00316", "unit": "µM"},
      {"measurement": "IC50", "setting": "second compound 0.3 µM", "result": "< 0.00316", "unit": "µM"},
      {"measurement": "viability, T/C", "setting": "second compound 0.000949 µM, first compound 0.00316 µM", "result": 75.8, "unit": "%"},
      {"measurement": "viability, T/C", "setting": "second compound 0.000949 µM, first compound 0.01 µM", "result": 88, "unit": "%"},
      {"measurement": "viability, T/C", "setting": "second compound 0.000949 µM, first compound 0.0316 µM", "result": 92.3, "unit": "%"},
      {"measurement": "viability, T/C", "setting": "second compound 0.000949 µM, first compound 0.1 µM", "result": 84.9, "unit": "%"},
      {"measurement": "viability, T/C", "setting": "second compound 0.000949 µM, first compound 0.316 µM", "result": 94.6, "unit": "%"},
      {"measurement": "viability, T/C", "setting": "second compound 0.000949 µM, first compound 1 µM", "result": 114, "unit": "%"},
      {"measurement": "viability, T/C", "setting": "second compound 0.003 µM, first compound 0.00316 µM", "result": 58.6, "unit": "%"},
      {"measurement": "viability, T/C", "setting": "second compound 0.003 µM, first compound 0.01 µM", "result": 59.5, "unit": "%"},
      {"measurement": "viability, T/C", "setting": "second compound 0.003 µM, first compound 0.0316 µM", "result": 57.9, "unit": "%"},
      {"measurement": "viability, T/C", "setting": "second compound 0.003 µM, first compound 0.1 µM", "result": 59.7, "unit": "%"},
      {"measurement": "viability, T/C", "setting": "second compound 0.003 µM, first compound 0.316 µM", "result": 62.6, "unit": "%"},
      {"measurement": "viability, T/C", "setting": "second compound 0.003 µM, first compound 1 µM", "result": 64, "unit": "%"},
      {"measurement": "viability, T/C", "setting": "second compound 0.00949 µM, first compound 0.00316 µM", "result": 34.3, "unit": "%"},
      {"measurement": "viability, T/C", "setting": "second compound 0.00949 µM, first compound 0.01 µM", "result": 36.4, "unit": "%"},
      {"measurement": "viability, T/C", "setting": "second compound 0.00949 µM, first compound 0.0316 µM", "result": 34.4, "unit": "%"},
      {"measurement": "viability, T/C", "setting": "second compound 0.00949 µM, first compound 0.1 µM", "result": 39.4, "unit": "%"},
      {"measurement": "viability, T/C", "setting": "second compound 0.00949 µM, first compound 0.316 µM", "result": 34.8, "unit": "%"},
      {"measurement": "viability, T/C", "setting": "second compound 0.00949 µM, first compound 1 µM", "result": 32.5, "unit": "%"},
      {"measurement": "viability, T/C", "setting": "second compound 0.03 µM, first compound 0.00316 µM", "result": 20.2, "unit": "%"},
      {"measurement": "viability, T/C", "setting": "second compound 0.03 µM, first compound 0.01 µM", "result": 21.9, "unit": "%"},
      {"measurement": "viability, T/C", "setting": "second compound 0.03 µM, first compound 0.0316 µM", "result": 18.5, "unit": "%"},
      {"measurement": "viability, T/C", "setting": "second compound 0.03 µM, first compound 0.1 µM", "result": 18, "unit": "%"},
      {"measurement": "viability, T/C", "setting": "second compound 0.03 µM, first compound 0.316 µM", "result": 20.3, "unit": "%"},
      {"measurement": "viability, T/C", "setting": "second compound 0.03 µM, first compound 1 µM", "result": 20.8, "unit": "%"},
      {"measurement": "viability, T/C", "setting": "second compound 0.0949 µM, first compound 0.00316 µM", "result": 15.2, "unit": "%"},
      {"measurement": "viability, T/C", "setting": "second compound 0.0949 µM, first compound 0.01 µM", "result": 15.7, "unit": "%"},
      {"measurement": "viability, T/C", "setting": "second compound 0.0949 µM, first compound 0.0316 µM", "result": 14.5, "unit": "%"},
      {"measurement": "viability, T/C", "setting": "second compound 0.0949 µM, first compound 0.1 µM", "result": 17, "unit": "%"},
      {"measurement": "viability, T/C", "setting": "second compound 0.0949 µM, first compound 0.316 µM", "result": 19.3, "unit": "%"},
      {"measurement": "viability, T/C", "setting": "second compound 0.0949 µM, first compound 1 µM", "result": 17.1, "unit": "%"},
      {"measurement": "viability, T/C", "setting": "second compound 0.3 µM, first compound 0.00316 µM", "result": 15.6, "unit": "%"},
      {"measurement": "viability, T/C", "setting": "second compound 0.3 µM, first compound 0.01 µM", "result": 14.8, "unit": "%"},
      {"measurement": "viability, T/C", "setting": "second compound 0.3 µM, first compound 0.0316 µM", "result": 13.6, "unit": "%"},
      {"measurement": "viability, T/C", "setting": "second compound 0.3 µM, first compound 0.1 µM", "result": 13.3, "unit": "%"},
      {"measurement": "viability, T/C", "setting": "second compound 0.3 µM, first compound 0.316 µM", "result": 13.2, "unit": "%"},
      {"measurement": "viability, T/C", "setting": "second compound 0.3 µM, first compound 1 µM", "result": 18.2, "unit": "%"}
    ]},
    {"smiles": "CC(C)NCC(C(=O)N1CCN(c2ncnc3c2C(C)CC3O)CC1)c1ccc(Cl)cc1", "note": "(centres undefined) + C=CC(=O)N1CCN(c2nc(OCC3CCCN3C)nc3c(F)c(-c4nc(N)cc(C)c4C(F)(F)F)c(Cl)cc23)C(C)C1", "values": [
      {"measurement": "IC50", "setting": "second compound 0.00316 µM", "result": "> 10", "unit": "µM"},
      {"measurement": "IC50", "setting": "second compound 0.01 µM", "result": "> 10", "unit": "µM"},
      {"measurement": "IC50", "setting": "second compound 0.0316 µM", "result": "> 10", "unit": "µM"},
      {"measurement": "IC50", "setting": "second compound 0.1 µM", "result": "> 10", "unit": "µM"},
      {"measurement": "IC50", "setting": "second compound 0.316 µM", "result": "> 10", "unit": "µM"},
      {"measurement": "IC50", "setting": "second compound 1 µM", "result": "> 10", "unit": "µM"},
      {"measurement": "viability, T/C", "setting": "second compound 0.00316 µM, first compound 0.0316 µM", "result": 98.4, "unit": "%"},
      {"measurement": "viability, T/C", "setting": "second compound 0.00316 µM, first compound 0.1 µM", "result": 97, "unit": "%"},
      {"measurement": "viability, T/C", "setting": "second compound 0.00316 µM, first compound 0.316 µM", "result": 102, "unit": "%"},
      {"measurement": "viability, T/C", "setting": "second compound 0.00316 µM, first compound 1 µM", "result": 92, "unit": "%"},
      {"measurement": "viability, T/C", "setting": "second compound 0.00316 µM, first compound 3.16 µM", "result": 99, "unit": "%"},
      {"measurement": "viability, T/C", "setting": "second compound 0.00316 µM, first compound 10 µM", "result": 98.7, "unit": "%"},
      {"measurement": "viability, T/C", "setting": "second compound 0.01 µM, first compound 0.0316 µM", "result": 101, "unit": "%"},
      {"measurement": "viability, T/C", "setting": "second compound 0.01 µM, first compound 0.1 µM", "result": 93.3, "unit": "%"},
      {"measurement": "viability, T/C", "setting": "second compound 0.01 µM, first compound 0.316 µM", "result": 91.1, "unit": "%"},
      {"measurement": "viability, T/C", "setting": "second compound 0.01 µM, first compound 1 µM", "result": 93.2, "unit": "%"},
      {"measurement": "viability, T/C", "setting": "second compound 0.01 µM, first compound 3.16 µM", "result": 101, "unit": "%"},
      {"measurement": "viability, T/C", "setting": "second compound 0.01 µM, first compound 10 µM", "result": 96.9, "unit": "%"},
      {"measurement": "viability, T/C", "setting": "second compound 0.0316 µM, first compound 0.0316 µM", "result": 96.2, "unit": "%"},
      {"measurement": "viability, T/C", "setting": "second compound 0.0316 µM, first compound 0.1 µM", "result": 96.8, "unit": "%"},
      {"measurement": "viability, T/C", "setting": "second compound 0.0316 µM, first compound 0.316 µM", "result": 94.3, "unit": "%"},
      {"measurement": "viability, T/C", "setting": "second compound 0.0316 µM, first compound 1 µM", "result": 87.9, "unit": "%"},
      {"measurement": "viability, T/C", "setting": "second compound 0.0316 µM, first compound 3.16 µM", "result": 96.3, "unit": "%"},
      {"measurement": "viability, T/C", "setting": "second compound 0.0316 µM, first compound 10 µM", "result": 101, "unit": "%"},
      {"measurement": "viability, T/C", "setting": "second compound 0.1 µM, first compound 0.0316 µM", "result": 104, "unit": "%"},
      {"measurement": "viability, T/C", "setting": "second compound 0.1 µM, first compound 0.1 µM", "result": 95.2, "unit": "%"},
      {"measurement": "viability, T/C", "setting": "second compound 0.1 µM, first compound 0.316 µM", "result": 96.4, "unit": "%"},
      {"measurement": "viability, T/C", "setting": "second compound 0.1 µM, first compound 1 µM", "result": 94.5, "unit": "%"},
      {"measurement": "viability, T/C", "setting": "second compound 0.1 µM, first compound 3.16 µM", "result": 95.9, "unit": "%"},
      {"measurement": "viability, T/C", "setting": "second compound 0.1 µM, first compound 10 µM", "result": 104, "unit": "%"},
      {"measurement": "viability, T/C", "setting": "second compound 0.316 µM, first compound 0.0316 µM", "result": 106, "unit": "%"},
      {"measurement": "viability, T/C", "setting": "second compound 0.316 µM, first compound 0.1 µM", "result": 93.4, "unit": "%"},
      {"measurement": "viability, T/C", "setting": "second compound 0.316 µM, first compound 0.316 µM", "result": 93, "unit": "%"},
      {"measurement": "viability, T/C", "setting": "second compound 0.316 µM, first compound 1 µM", "result": 88.5, "unit": "%"},
      {"measurement": "viability, T/C", "setting": "second compound 0.316 µM, first compound 3.16 µM", "result": 96.7, "unit": "%"},
      {"measurement": "viability, T/C", "setting": "second compound 0.316 µM, first compound 10 µM", "result": 92.6, "unit": "%"},
      {"measurement": "viability, T/C", "setting": "second compound 1 µM, first compound 0.0316 µM", "result": 105, "unit": "%"},
      {"measurement": "viability, T/C", "setting": "second compound 1 µM, first compound 0.1 µM", "result": 100, "unit": "%"},
      {"measurement": "viability, T/C", "setting": "second compound 1 µM, first compound 0.316 µM", "result": 92.5, "unit": "%"},
      {"measurement": "viability, T/C", "setting": "second compound 1 µM, first compound 1 µM", "result": 98.9, "unit": "%"},
      {"measurement": "viability, T/C", "setting": "second compound 1 µM, first compound 3.16 µM", "result": 103, "unit": "%"},
      {"measurement": "viability, T/C", "setting": "second compound 1 µM, first compound 10 µM", "result": 99.1, "unit": "%"}
    ]}
  ]
}
